The target in assay [1] is T1, β-secretase (BACE) (Homo sapiens, UniProt P56817).
T1 construct: purchased Panvera
Description: BACE FS1 Assay (% Inhibition and Ki). In kind it is biochemical. The conditions noted are these: FS1 substrate; for inhibition at 0.3 µM: read-out: % Inhibition (FS) @ 0.3 μM; for inhibition at 1 µM: read-out: % Inhibition (FS) @ 1 μM; for inhibition at 3 µM: read-out: % Inhibition (FS) @ 3 μM. The method, then: BACE FS1 Assay (% Inhibition and Ki)
The following reagents were used in this assay: sodium acetate, PEG8000 (Sigma), DMSO, HEPES, FS1 substrate [R(AedensE)[…]-(DabcylK)R], β-secretase (BACE) (Panvera), and 96-well plate (HE microplate, Molecular Devices).
The following assay buffers were prepared and used in this assay: (1) enzyme assay buffer (0.05 M sodium acetate, pH5, 0.1% PEG8000 (w/v)), (2) substrate assay buffer (0.05 M sodium acetate, pH5), and (3) compound vehicle (30% DMSO in 50 mM HEPES, pH 7.4).
The FS1-substrate stock solution was prepared in DMSO as a 10 mg/mL solution. The FS1-substrate working solution was prepared by diluting the 10 mg/mL stock solution with substrate assay buffer to a final concentration of 300 μg/mL. The β-secretase (BACE) working solution was prepared by diluting a 0.83 mg/mL BACE stock solution with enzyme assay buffer to a final concentration of 4 μg/mL.
Test compounds were dissolved in DMSO to 10 mM. Compounds were further diluted in vehicle to various concentrations in the range of 405 μM to 4.05 μM (13.5× final compound concentration in screening plate).
The screening procedure for this assay was as follows: 15 μL of BACE working solution was pipetted into each well of a 96-well plate. To each well was then pipetted 2 μL of test compound at the selected concentration. Test compound and BACE were then mixed with a pipettor and incubated for 20 min at room temperature. To each well was then added 10 μL of the FS1 substrate working solution. The plates were then incubated for 1 hour at room temperature. The fluorescence for each well was then measured on an LJL analyst (Ex 360 nm/Em 530 nm).
The procedure for the blank was as follows. 15 μL of assay buffer was pipetted into each well to be used as a blank control. To each well was then added 2 μL of vehicle and […] of FS1-substrate working solution. The plates were then incubated for 1 hour at room temperature. The fluorescence was measured on an LJL analyst (Ex 360 nm/Em 530 nm).
The procedure for the positive control was as follows: 15 μL of BACE working solution was pipetted into each well to be used as a positive control. To each well was then pipetted 2 μL of vehicle. Vehicle and BACE were then mixed with a pipettor and incubated for 20 min at room temperature. To each well was then added 10 μL of the FS1 substrate working solution. The plates were then incubated for 1 hour at room temperature. The fluorescence (F1) was then measured on an LJL analyst (Ex 360 nm/Em 530 nm).
For test compounds, % inhibition was determined at each concentration as follows:
% Inhibition values of less than 30% were indistinguishable from control are listed as ≦30% in Table 18, below.
For test compounds, measured at multiple concentrations, the measured T0 and T60 values were used to calculate an IC50 value using Graphpad Software (or PIR). Ki inhibition was determined as follows: For each compound concentration and positive control, rate of cleavage of substrate (Vi, where i=compound concentration in μM) was determined as Δ Fluorescence/Δ time (min). Cleavage rates (Vi) were plotted as a function of inhibitor concentration in μM [I]. […]

Assay [2] concerns the target human BACE-1 (Homo sapiens, UniProt P56817). Description: CEREP BACE Inhibition Assay. In kind it is biochemical. The conditions noted are these: recombinant enzyme; for inhibition at 1 µM: read-out: % Inhibition @ 1.0 μM; for IC50: read-out: IC50. Summed up: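 Recombinant human BACE-1 (0.25 μg) was assayed in 0.09 M sodium acetate pH 4.5, with activity followed fluorimetrically as formation of Mca-S-E-V-N-L[…] from peptide substrate. Compound autofluorescence was checked at the detection wavelengths. Basal signal was taken from wells without substrate.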

The mark [3] stands for this setting: percent inhibition of the control activity.

The text below walks through data of patent US7531545B2, “2-amino-3,4-dihydro-pyrido[3,4-d]pyrimidine derivatives useful as inhibitors of β-secretase (BACE)” (Janssen Pharmaceutica, N.V., priority 2005, dated 2009).

Where “and” joins values, the source holds several entries; their conditions need not be identical. Identical values can stand only once. Counter-ions that a name gives are not always drawn.

T1 sequence (P56817 46-501): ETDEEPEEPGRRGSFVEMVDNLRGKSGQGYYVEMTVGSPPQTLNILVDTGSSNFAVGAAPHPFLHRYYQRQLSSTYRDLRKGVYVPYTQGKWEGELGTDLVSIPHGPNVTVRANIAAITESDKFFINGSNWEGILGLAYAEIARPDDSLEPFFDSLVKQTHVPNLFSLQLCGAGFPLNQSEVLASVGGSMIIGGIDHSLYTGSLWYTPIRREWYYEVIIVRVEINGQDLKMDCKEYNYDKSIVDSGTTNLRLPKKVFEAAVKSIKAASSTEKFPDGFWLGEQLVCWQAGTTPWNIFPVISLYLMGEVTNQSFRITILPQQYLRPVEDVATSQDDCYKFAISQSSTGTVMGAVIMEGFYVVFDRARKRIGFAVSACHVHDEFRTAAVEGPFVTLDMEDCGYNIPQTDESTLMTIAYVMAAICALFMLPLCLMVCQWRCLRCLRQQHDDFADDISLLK
human BACE-1, sequence (P56817 46-501): as above

As to `CC(C)[C@H](CCC(=O)N(CCO)C1CCCCC1)N1Cc2cc(Oc3ccccc3)ncc2N=C1N` [Compound 31], the inhibition at 0.3 µM in assay [1] (0.3 μM test compound) was 129%. Besides, in assay [1] (1 μM test compound), the inhibition at 1 µM was found to be 125%. Also, the inhibition at 3 µM in assay [1] (3 μM test compound) was determined as 125%. Besides, the inhibition constant Ki in assay [1] was 8 nM.
In the case of `COc1ccccc1-c1cc2c(cn1)N=C(N)N([C@@H](CCC(=O)N(C)C1CCCCC1)C1CCCCC1)C2` [Compound 3], the inhibition at 0.3 µM in assay [1] (0.3 μM test compound) turned out to be 130%. The inhibition at 1 µM in assay [1] (1 μM test compound) was found to be 132%. For the same molecule, the inhibition at 3 µM in assay [1] (3 μM test compound) is 139%. The molecule also gave a Ki in assay [1] of 18 nM.
Taken in the same sequence, the figures for `NC1=Nc2cnc(Oc3ccccc3)cc2CN1[C@@H](CCC(=O)N(CCO)[C@H]1CC[C@@H](C(=O)O)CC1)C1CCOCC1` [Compound 38, 4-[[4-(2-Amino-6-phenoxy-4H-pyrido[3,4-d]pyrimidin-3-yl)-4-(S)-(tetrahydro-pyran-4-yl)-butyryl]-(2-hydroxy-ethyl)-amino]-cyclohexanecarboxylic acid] were 112%, 110%, 115% and 9 nM.
The corresponding values for `CC(C)[C@H](CCC(=O)N[C@@H](COCc1ccccc1)C(=O)O)N1Cc2cc(Oc3ccccc3)ncc2N=C1N` [Compound 47, 2-[4-(2-Amino-6-phenoxy-4H-pyrido[3,4-d]pyrimidin-3-yl)-5-methyl-(S)-hexanoylamino]-3-(S)-benzyloxy-propionic acid] are 109%, 109%, 115% and 72 nM.
In the case of `CN(C(=O)CC[C@@H](C1CCOCC1)N1Cc2cc(Oc3ccccc3)ncc2N=C1N)[C@H]1CC[C@@H](C(=O)O)CC1` [Compound 33], the inhibition at 0.3 µM in assay [1] (0.3 μM test compound) came out at 114%. Moreover, the inhibition at 1 µM in assay [1] (1 μM test compound) stood at 112%. The inhibition at 3 µM in assay [1] (3 μM test compound) came out at 113%. Further, the Ki in assay [1] is 5 nM.
With `CC(C)C(CCC(=O)N(C)C1CCC(C(=O)O)CC1)N1Cc2cc(Oc3ccccc3)ncc2N=C1N` (centres unmarked) [Compound 8], the “% Inhibition (FS) @ 0.3 μM” value in assay [1] (0.3 μM test compound, 0.3 µM) was found to be 121%. Further, the inhibition at 0.3 µM in assay [1] (0.3 μM test compound) amounted to 106%. The “% Inhibition (FS) @ 1 μM” value in assay [1] (1 μM test compound, 1 µM) was found to be 115%. Also, the inhibition at 1 µM in assay [1] (1 μM test compound) is 129%. In assay [1] (3 μM test compound, 3 µM), the “% Inhibition (FS) @ 3 μM” value is listed as 130%. Also, the inhibition at 3 µM in assay [1] (3 μM test compound) was found to be 138%. The Ki in assay [1] was 27 nM and 16 nM.
With `CC(C)C(CCC(=O)N(CCO)C1CCC(c2nnn[nH]2)CC1)N1Cc2cc(Oc3ccccc3)ncc2N=C1N` (centres unmarked) [Compound 12], in assay [1] (0.3 μM test compound), the inhibition at 0.3 µM came to 30%. In addition, the inhibition at 1 µM in assay [1] (1 μM test compound) was determined as 63%. In addition, in assay [1] (3 μM test compound), the inhibition at 3 µM was determined as 95%. In assay [1], this molecule registered an inhibitory constant (Ki) of 503 nM.
The corresponding values for `COC(=O)[C@H](COCc1ccccc1)N(C)C(=O)CC[C@@H](C(C)C)N1Cc2cc(Oc3ccccc3)ncc2N=C1N` [Compound 51, 2-{[4-(2-Amino-6-phenoxy-4H-pyrido[3,4-d]pyrimidin-3-yl)-5-methyl-(S)-hexanoyl]-methyl-amino}-3-(S)-benzyloxy-propionic acid methyl ester trifluoroacetate salt] are 114%, 118%, 118% and 14 nM.
Taken in the same sequence, the figures for `CC(C)C(CCC(=O)N(CCO)C1CCC(C(=O)O)CC1)N1Cc2cc(Oc3ccccc3)ncc2N=C1N` (centres unmarked) [Compound 20] were 97%, 102%, 104% and 13 nM.
Taken in the same sequence, the figures for `COC(=O)[C@H]1CC[C@@H](N(C)C(=O)CC[C@@H](C2CCOCC2)N2Cc3cc(Oc4ccccc4)ncc3N=C2N)CC1` [Compound 32] were 79%, 101%, 109% and 20 nM.
In the case of `COCCC(CCC(=O)N(C)C1CCCCC1)N1Cc2cc(Oc3ccccc3)ncc2N=C1N` (centres unmarked) [Compound 23], the inhibition at 0.3 µM in assay [1] (0.3 μM test compound) was determined as 32%. The inhibition at 1 µM in assay [1] (1 μM test compound) came to 86%. Also, the inhibition at 3 µM in assay [1] (3 μM test compound) came out at 103%. In addition, the affinity in assay [1] corresponds to a Ki of 151 nM.
The corresponding values for `CCC(CC)N(CCO)C(=O)CC[C@@H](C1CCCCC1)N1Cc2cc(Oc3ccccc3)ncc2N=C1N` [Compound 50] are 68%, 100%, 112% and 58 nM.
The corresponding values for `CCOC(=O)C1CCC(N(CCO)C(=O)CCC(C(C)C)N2Cc3cc(Oc4ccccc4)ncc3N=C2N)CC1` (centres unmarked) [Compound 14] are 11%, 66%, 108% and 241 nM.
The corresponding values for `COC(=O)[C@H](COCc1ccccc1)NC(=O)CC[C@@H](C(C)C)N1Cc2cc(Oc3ccccc3)ncc2N=C1N` [Compound 45, 2-[4-(2-Amino-6-phenoxy-4H-pyrido[3,4-d]pyrimidin-3-yl)-5-methyl-(S)-hexanoylamino]-3-(S)-benzyloxy-propionic acid methyl ester hydrobromide salt] are 82%, 91%, 110% and 127 nM.
Take `NC1=Nc2cnc(Oc3ccccc3)cc2CN1[C@@H](CN1C(=O)NC2(CCCCC2)C1=O)C1CCCCC1` [Compound 229, 3-[2-(2-Amino-6-phenoxy-4H-pyrido[3,4-d]pyrimidin-3-yl)-2-(R)-cyclohexyl-ethyl]-1,3-diaza-spiro[4.5]decane-2,4-dione]: in assay [2] (setting [3]), the inhibition at 1 µM is 78%. Moreover, the half-inhibitory concentration (IC50) in assay [2] amounted to 390 nM.
The corresponding values for `CC(C)CN(CCN1CCOCC1)C(=O)CC[C@@H](C(C)C)N1Cc2cc(Oc3ccccc3)ncc2N=C1N` [Compound 190] are 86% and 190 nM.
In the case of `CC(C)[C@H](CCC(=O)N[C@@H](COC(C)(C)C)c1nnnn1Cc1ccccc1)N1Cc2cc(Oc3ccccc3)ncc2N=C1N` [Compound 95], the inhibition at 0.3 µM in assay [2] (0.3 μM, percent inhibition of the control activity) worked out at 86%. For the same molecule, in assay [2], the IC50 is 210 nM.
Consider `CC(C)(C)CCN(CCN1CCOCC1)C(=O)CC[C@@H](C1CCCCC1)N1Cc2cc(Oc3ccccc3)ncc2N=C1N` [Compound 174], for which the inhibition at 1 µM in assay [2] (setting [3]) worked out at 100%. For the same molecule, the half-maximal inhibitory concentration (IC50) in assay [2] is 86 nM.
As for `NC1=Nc2cnc(Oc3ccccc3)cc2CN1[C@@H](CCC(=O)N1CCC[C@@H]1CO)C1CCCCC1` [Compound 144], the inhibition at 1 µM in assay [2] (setting [3]) came out at 81%. The IC50 in assay [2] amounted to 820 nM.
The corresponding values for `CC(C)CN(CCC[C@@H](C(C)C)N1Cc2cc(Oc3ccccc3)ncc2N=C1N)CCN1CCOCC1` [Compound 193] are 60% and 54 nM.
Take `CN(C(=O)C[C@@H](C1CCCCC1)N1Cc2cc(Oc3ccccc3)ncc2N=C1N)C1CCCCC1` [Compound 205]: the inhibition at 1 µM in assay [2] (setting [3]) turned out to be 81%. In assay [2], the IC50 came out at 290 nM.
The corresponding values for `C[C@H](CO)N(CCC(C)(C)C)C(=O)CC[C@@H](C1CCCCC1)N1Cc2cc(Oc3ccccc3)ncc2N=C1N` [Compound 138] are 8% and 310 nM.
Taken in the same sequence, the figures for `C[C@@H](O)[C@H](CCC(=O)N(C)C1CCCCC1)N1Cc2cc(Oc3ccccc3)ncc2N=C1N` [Compound 177] were 80% and 320 nM.
